# Measurements: ChEMBL document CHEMBL1201862, “PubChem BioAssay data set” (2004)
# Calls of active or inactive are those of the source. Rule as the data show it, for most assays here: actives have a measured EC50 and inactives only a lower limit.
# Experiments:
# [1] = biological target: Nonstructural protein 1 (Influenza A virus, UniProt Q194T2); format: functional, Influenza A virus (A/California/07/2009(H1N1))
# [2] = biological target: Heat shock protein HSP 90-alpha (Homo sapiens, UniProt P07900); format: functional, organism-based
# [3] = biological target: Genome polyprotein (dengue virus type 2, UniProt P29990); experiment: flavivirus cap methylation enzyme inhibition – biochemical, confirmation dose response, primary screen (AID 588689); format: functional
# Chain of Genome polyprotein (P29990 2492-3391 limits assumed): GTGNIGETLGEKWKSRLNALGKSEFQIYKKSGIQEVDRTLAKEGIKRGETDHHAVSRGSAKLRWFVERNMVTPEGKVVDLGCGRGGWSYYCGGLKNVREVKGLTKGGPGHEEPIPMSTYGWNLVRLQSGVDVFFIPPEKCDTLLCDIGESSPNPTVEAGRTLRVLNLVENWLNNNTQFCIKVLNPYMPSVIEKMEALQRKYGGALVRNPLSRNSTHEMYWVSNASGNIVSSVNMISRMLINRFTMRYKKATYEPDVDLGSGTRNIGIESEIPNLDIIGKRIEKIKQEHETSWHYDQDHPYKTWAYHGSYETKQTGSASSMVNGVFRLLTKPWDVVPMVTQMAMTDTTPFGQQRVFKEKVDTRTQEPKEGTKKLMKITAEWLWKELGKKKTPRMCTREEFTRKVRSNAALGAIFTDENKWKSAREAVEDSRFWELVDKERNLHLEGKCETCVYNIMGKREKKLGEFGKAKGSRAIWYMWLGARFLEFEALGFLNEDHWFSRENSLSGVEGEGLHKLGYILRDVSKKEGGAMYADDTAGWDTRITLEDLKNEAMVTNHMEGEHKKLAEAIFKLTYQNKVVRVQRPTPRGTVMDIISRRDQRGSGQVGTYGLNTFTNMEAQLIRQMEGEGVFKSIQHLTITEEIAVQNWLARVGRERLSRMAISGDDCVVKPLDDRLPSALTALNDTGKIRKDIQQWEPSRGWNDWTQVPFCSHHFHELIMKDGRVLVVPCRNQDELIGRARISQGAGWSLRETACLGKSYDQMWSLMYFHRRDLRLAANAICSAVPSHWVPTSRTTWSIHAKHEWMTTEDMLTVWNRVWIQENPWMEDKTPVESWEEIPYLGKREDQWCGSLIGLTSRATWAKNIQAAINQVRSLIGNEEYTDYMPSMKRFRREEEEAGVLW
# [4] = biological target: Induced myeloid leukemia cell differentiation protein Mcl-1 (Homo sapiens, UniProt Q07820); format: functional
# Chain of Induced myeloid leukemia cell differentiation protein Mcl-1 (Q07820 whole entry): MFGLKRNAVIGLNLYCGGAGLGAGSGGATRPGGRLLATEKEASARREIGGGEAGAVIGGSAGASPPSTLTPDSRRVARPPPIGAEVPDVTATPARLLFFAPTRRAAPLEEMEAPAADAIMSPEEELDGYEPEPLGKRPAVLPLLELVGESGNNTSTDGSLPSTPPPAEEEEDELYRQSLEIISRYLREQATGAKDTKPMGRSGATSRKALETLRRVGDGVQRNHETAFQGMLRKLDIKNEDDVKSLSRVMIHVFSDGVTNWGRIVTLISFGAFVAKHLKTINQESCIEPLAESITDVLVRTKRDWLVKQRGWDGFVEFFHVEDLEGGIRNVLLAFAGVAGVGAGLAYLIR
# [5] = biological target: T1, Zinc finger protein mex-5 (Caenorhabditis elegans, UniProt Q9XUB2); experiment: potency of MEX-5 RNA-binding blockers – biochemical, C. elegans, fluorescence polarization, dose response (AID 1960)
# T1 sequence (Q9XUB2 whole entry): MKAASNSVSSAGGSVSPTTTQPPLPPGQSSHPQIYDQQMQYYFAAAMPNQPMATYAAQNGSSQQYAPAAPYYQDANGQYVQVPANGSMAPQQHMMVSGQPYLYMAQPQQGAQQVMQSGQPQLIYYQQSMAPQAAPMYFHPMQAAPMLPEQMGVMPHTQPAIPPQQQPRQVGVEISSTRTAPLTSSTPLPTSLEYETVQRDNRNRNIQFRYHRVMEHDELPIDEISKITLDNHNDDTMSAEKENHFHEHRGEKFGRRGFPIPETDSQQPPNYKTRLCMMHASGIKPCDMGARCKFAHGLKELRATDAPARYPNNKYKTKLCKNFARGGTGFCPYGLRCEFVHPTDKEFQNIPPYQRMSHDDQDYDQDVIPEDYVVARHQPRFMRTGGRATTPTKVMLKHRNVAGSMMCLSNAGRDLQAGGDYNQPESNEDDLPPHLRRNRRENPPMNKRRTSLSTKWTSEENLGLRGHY
# [6] = biological target: T2, RNA-binding protein pos-1 (Caenorhabditis elegans, UniProt G5EF15); experiment: disruptors of C. elegans POS-1 RNA interaction – biochemical, fluorescence polarization, dose response (AID 1964);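 also: purified POS-1 fused to maltose binding protein made in E. coli; potency of compounds blocking POS-1 binding to fluorescent RNA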
# T2 sequence (G5EF15 whole entry): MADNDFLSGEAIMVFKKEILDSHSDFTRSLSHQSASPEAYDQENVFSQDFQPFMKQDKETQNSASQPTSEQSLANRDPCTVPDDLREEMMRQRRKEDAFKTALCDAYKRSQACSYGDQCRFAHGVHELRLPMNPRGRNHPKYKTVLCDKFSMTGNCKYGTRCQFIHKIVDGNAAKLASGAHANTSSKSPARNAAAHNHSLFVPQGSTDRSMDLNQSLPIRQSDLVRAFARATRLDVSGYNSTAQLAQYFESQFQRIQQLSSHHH
# [7] = biological target: T3, Histone-lysine N-methyltransferase NSD2 (Homo sapiens, UniProt O96028); format: biochemical
# T3 sequence (O96028 whole entry): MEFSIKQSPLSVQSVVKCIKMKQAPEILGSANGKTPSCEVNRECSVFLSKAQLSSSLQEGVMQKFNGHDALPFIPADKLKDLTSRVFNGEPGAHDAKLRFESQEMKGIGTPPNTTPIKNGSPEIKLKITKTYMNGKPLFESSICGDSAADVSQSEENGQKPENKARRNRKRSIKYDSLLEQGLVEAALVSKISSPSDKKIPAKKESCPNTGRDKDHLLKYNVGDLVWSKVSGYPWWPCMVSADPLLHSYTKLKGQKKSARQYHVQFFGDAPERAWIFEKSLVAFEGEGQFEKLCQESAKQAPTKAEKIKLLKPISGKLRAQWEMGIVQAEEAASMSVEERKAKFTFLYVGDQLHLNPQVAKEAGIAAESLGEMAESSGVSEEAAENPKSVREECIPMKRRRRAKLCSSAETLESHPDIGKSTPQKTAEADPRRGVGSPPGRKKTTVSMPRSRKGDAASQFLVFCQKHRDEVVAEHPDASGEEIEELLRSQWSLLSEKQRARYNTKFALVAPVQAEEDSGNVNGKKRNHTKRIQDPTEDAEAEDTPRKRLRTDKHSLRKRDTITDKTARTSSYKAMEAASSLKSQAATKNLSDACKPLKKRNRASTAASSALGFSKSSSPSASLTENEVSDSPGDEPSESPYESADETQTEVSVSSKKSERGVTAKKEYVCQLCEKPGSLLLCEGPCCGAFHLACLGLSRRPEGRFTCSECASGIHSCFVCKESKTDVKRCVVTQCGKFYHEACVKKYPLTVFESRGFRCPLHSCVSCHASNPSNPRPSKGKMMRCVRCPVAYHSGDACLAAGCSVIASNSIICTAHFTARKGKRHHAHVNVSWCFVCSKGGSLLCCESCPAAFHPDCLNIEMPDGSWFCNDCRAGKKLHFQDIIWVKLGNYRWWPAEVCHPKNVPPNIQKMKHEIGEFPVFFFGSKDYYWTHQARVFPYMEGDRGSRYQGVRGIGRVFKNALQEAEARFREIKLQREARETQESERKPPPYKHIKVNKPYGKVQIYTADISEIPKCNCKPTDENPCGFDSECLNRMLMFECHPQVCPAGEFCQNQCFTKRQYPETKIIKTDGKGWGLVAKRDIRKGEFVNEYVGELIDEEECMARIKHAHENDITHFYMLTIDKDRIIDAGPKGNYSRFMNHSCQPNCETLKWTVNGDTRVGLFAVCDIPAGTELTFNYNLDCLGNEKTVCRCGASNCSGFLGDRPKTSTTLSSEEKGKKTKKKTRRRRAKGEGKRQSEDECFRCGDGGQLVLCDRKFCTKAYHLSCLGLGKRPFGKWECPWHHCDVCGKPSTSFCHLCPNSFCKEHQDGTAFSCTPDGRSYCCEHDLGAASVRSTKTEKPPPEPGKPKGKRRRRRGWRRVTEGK
# [8] = biological target: T4, Carboxy-terminal domain RNA polymerase II polypeptide A small phosphatase 1 (Homo sapiens, UniProt Q9GZU7); experiment: CTDSP1 inhibitors, concentration-response, biochemical, absorbance readout, ultra-high-throughput screen actives (AID 540297); format: functional
# T4 sequence (Q9GZU7 whole entry): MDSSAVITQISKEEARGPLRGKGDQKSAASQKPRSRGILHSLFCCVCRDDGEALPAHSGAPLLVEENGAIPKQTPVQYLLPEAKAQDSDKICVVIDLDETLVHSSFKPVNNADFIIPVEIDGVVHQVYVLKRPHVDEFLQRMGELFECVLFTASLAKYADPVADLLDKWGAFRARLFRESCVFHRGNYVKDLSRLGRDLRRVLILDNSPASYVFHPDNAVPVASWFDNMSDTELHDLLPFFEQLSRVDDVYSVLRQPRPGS
# [9] = biological target: T5, Leucine aminopeptidase (Plasmodium falciparum 3D7, UniProt Q8IL11); experiment: P. falciparum M17LAP inhibitors, primary screen, biochemical, fluorogenic H-Leu-NHMec substrate, 1536-well (AID 1619); format: functional
# T5 sequence (Q8IL11 whole entry): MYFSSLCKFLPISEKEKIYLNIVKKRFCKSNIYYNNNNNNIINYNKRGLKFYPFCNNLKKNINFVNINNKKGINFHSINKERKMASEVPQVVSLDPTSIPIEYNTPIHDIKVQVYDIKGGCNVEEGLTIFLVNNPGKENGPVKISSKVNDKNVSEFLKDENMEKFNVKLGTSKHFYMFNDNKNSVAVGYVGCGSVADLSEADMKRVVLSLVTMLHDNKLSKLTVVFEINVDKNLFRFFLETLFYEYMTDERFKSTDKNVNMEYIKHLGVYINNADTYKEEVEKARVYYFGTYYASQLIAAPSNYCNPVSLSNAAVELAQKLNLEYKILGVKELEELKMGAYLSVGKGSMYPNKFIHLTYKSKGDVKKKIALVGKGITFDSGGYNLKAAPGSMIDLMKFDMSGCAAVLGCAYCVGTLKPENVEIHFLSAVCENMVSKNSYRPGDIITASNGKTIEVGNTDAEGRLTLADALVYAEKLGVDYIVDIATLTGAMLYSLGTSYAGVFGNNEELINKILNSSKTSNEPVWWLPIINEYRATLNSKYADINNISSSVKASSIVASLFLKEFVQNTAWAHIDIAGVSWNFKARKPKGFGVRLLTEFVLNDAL
# [10] = Luminescence Cell-Based Dose Response HTS to Identify Inhibitors of 5'UTR Stem-Loop Driven Prion Protein mRNA Translation in H4 Neuroglioblastoma Cells. [Related pubchem assays: 1827 (Project Summary), 1813 (Primary HTS)]; format: functional
# [11] = tested on: Streptococcus; experiment: GAS UMAA2166 growth inhibition – luminescence, BacTiterGlo, counter-screen for streptokinase expression inhibitor project, dose response (AID 1915); format: functional, organism-based;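 also: potency for reduction of bacterial viability or growth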
# [12] = alpha-synuclein stem-loop luciferase translation blockers – H4 neuroglioma cells, luminescence, confirmation (AID 1988); format: functional, cell-based
# [13] = NIH3T3 cell viability loss – ATP luminescence, mouse fibroblasts, counter-screen, dose response (AID 2010); format: functional, cell-based;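 also: cells exposed to compound for about 90 hours before reading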
# [14] = tested on: Streptococcus sp. 'group A'; experiment: Streptococcus pyogenes SK(-)GAS viability under kanamycin – luminescence, BacTiterGlo, confirmation, counter-screen for streptokinase expression inhibitor project, dose response (AID 1900); format: functional, organism-based
# [15] = luciferase reporter signal suppression in cells – H4 neuroglioma cells, luminescence, dose response (AID 1990); format: functional, cell-based
# [16] = Trypanosoma cruzi growth suppression in host cells – NIH3T3 host cells, beta-gal luminescence, confirmation (AID 2044); format: functional, cell-based;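 also: intracellular parasites grown in NIH/3T3 mouse fibroblasts as host cells; luminescent beta-galactosidase reporter signal from transgenic T. cruzi replicating inside host cells; inhibitors lower the luminescence signal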
# [17] = viability loss of HPDE-C7K cells – cell-based, fluorescence, HTS, primary screen (AID 431); format: functional; conditions: Homo sapiens
# [18] = HPDE-C7 pancreatic duct cell viability loss – fluorescence, HTS (AID 430); format: functional, cell-based; conditions: Homo sapiens
# [19] = tested on: INS1; experiment: INS-1E survival protection against cytokine death – cell-based, luminescence, retest, dose response (AID 449756); format: functional; conditions: Rattus norvegicus;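 also: cell death triggered by IL-1 beta plus TNF-alpha plus IFN-gamma mixture; protective hits raise ATP signal compared with cytokine alone wells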
# [20] = microbe, parasite or virus in culture; format: functional; conditions: Mycobacterium tuberculosis
# [21] = viability of HCT116 lacking mutant beta-catenin – cell-based, human colon tumor, dose response (AID 1045); format: functional;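 also: HCT116 colon tumor cells with beta catenin knocked out; cells exposed to compound for 60 hours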
# [22] = viability of PTEN-deleted HCT116 cells – cell-based, HCT116 PTEN knockout, dose response (AID 1047); format: functional;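 also: HCT116 colon tumor cells with PTEN knocked out; cells exposed to compound for 60 hours before readout; potency for loss of cell viability measured by luminescence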
# [23] = biological target: Luciferin 4-monooxygenase (Photinus pyralis, UniProt P08659); experiment: inhibition of purified Photinus pyralis luciferase – biochemical, luminescence, dose response (AID 1891)
# Chain of Luciferin 4-monooxygenase (P08659 whole entry): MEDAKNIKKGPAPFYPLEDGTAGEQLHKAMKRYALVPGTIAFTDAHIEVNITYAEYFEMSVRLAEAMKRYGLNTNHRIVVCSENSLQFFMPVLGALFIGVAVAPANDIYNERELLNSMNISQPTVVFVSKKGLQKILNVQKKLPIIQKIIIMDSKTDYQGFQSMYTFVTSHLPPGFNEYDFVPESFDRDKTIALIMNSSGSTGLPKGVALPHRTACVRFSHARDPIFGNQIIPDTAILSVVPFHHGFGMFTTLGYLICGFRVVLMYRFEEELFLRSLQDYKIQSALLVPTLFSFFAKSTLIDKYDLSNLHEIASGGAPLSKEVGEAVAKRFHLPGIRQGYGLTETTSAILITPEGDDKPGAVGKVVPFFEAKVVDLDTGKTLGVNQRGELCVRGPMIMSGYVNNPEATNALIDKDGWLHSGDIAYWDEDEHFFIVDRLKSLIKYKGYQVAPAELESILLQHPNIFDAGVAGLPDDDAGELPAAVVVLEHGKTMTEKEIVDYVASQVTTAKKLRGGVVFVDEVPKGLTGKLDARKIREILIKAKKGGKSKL
# [24] = Luminescence Cell-Based Dose Confirmation HTS to Identify Inhibitors of Platelet Dense Granule Release. [Related pubchem assays: 1663 (Primary HTS), 1678 (Summary of Project)]; format: functional
# Chain of Nonstructural protein 1 (Q194T2 whole entry): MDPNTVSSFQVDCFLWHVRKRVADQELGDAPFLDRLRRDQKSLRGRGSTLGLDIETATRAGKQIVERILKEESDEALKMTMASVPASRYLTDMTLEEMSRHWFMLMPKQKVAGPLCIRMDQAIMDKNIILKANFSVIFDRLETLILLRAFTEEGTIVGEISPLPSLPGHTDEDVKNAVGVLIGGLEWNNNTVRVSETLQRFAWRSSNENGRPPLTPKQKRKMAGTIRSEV
smiles,measurement,setting,value
Cc1cc(NC(=O)CSc2nnc(-c3ccco3)o2)no1,IC50,[1],32.4 µM (active)
COC(=O)c1ccc(N2C(=O)CC(N(C)Cc3ccccc3)C2=O)cc1 (stereo not drawn),AC50,[2],7.7 µM (active)
COc1ccccc1/C=C1\SC(=S)N(NS(=O)(=O)c2ccc(C)cc2)C1=O,IC50,[3],34.7 µM (active)
O=C(Cn1nc(C(=O)O)c2ccccc2c1=O)Nc1ccc2c(c1)C(=O)c1ccccc1C2=O,IC50,[4],4.02 µM (active)
Cc1cc(/C=C(/C#N)c2nc3ccccc3[nH]2)c(C)n1-c1cc(C(=O)O)cc(C(=O)O)c1,EC50,[5],41.4 µM (active)
same,EC50,[6],59.3 µM (active)
same,AC50,[7],> 20 µM (inactive)
same,IC50,[8],5.68 µM (active)
same,IC50,[9],42.6 µM (active)
Oc1ccc(CN2CCN(c3ccccc3)CC2)c2cccnc12,EC50,[10],9.95 µM (active)
same,EC50,[11],7.49 µM (active)
same,IC50,[1],59.1 µM (active)
same,EC50,[12],9.72 µM (active)
same,EC50,[13],> 60 µM (not active)
same,EC50,[14],5.48 µM (active)
same,EC50,[15],11.9 µM (active)
same,EC50,[16],1.86 µM (active)
Cc1cc(C)c(S(=O)(=O)NCC23C=CC(O2)C2C(=O)N(c4ccccc4)C(=O)C23)c(C)c1 (stereo not drawn),AC50,[2],10.1 µM (active)
CC(C)(C)OC(=O)N[C@@H](Cc1ccccc1)c1nnc(S(=O)(=O)Cc2ccccc2)o1,EC50,[17],> 20 µM (not active)
same,EC50,[18],16.9 µM (active)
O=C1C([N-]S(=O)(=O)c2cccs2)=C([n+]2ccc(CCCc3ccccc3)cc2)C(=O)c2ccccc21,AC50,[19],8.75 µM (active)
same,EC50,[5],97 µM (active)
same,EC50,[6],119 µM (active)
same,EC50,[10],> 120 µM (not active)
same,EC50,[12],8.36 µM (active)
same,EC50,[15],10.5 µM (active)
same,CC50,[20],9.69 µM (active)
CN1c2ccccc2C(C)(C)C12C=Cc1cc(O)ccc1O2 (stereo not drawn),EC50,[21],18.4 µM (active)
same,EC50,[17],> 20 µM (not active)
same,EC50,[22],36.4 µM (active)
same,EC50,[18],15.2 µM (active)
Cc1ccc2c(c1)c1ncnc(N3CCc4ccccc4C3)c1n2C,EC50,[17],11.7 µM (active)
same,EC50,[18],11.4 µM (active)
same,CC50,[20],> 40 µM (active)
O=C(O)CN1C(=O)/C(=C\c2cccc(OCc3ccc(F)cc3)c2)SC1=S,IC50,[3],42.6 µM (active)
O=C1CC2CCCN2C=C1I (stereo not drawn),IC50,[8],5.48 µM (active)
same,IC50,[3],62.7 µM (active)
O=C1NC(=O)C(=Cc2ccccc2[N+](=O)[O-])C(=O)N1,IC50,[3],27.3 µM (active)
Oc1nccc(N/N=C/c2ccccc2O)n1,AC50,[19],0.625 µM (active)
same,IC50,[1],10.3 µM (active)
same,EC50,[23],36.3 µM (active)
same,EC50,[24],4.11 µM (active)
O=C(COC(=O)c1cc(-c2ccco2)nc2ccccc12)NCc1ccc2c(c1)OCO2,IC50,[4],< 0.4 µM (active)
